Broadly, the IC50 is the concentration that inhibits the measured activity by half.

Each structure is given as a SMILES string.

The target in assay [1] is human Smo (Homo sapiens (Human), UniProt Q99835). The assay can be described thus: Smo radioligand competition binding assay. The conditions noted are these: for inhibition at 0.05 µM: 0.05 μM test compound, read-out: Smo % inh. @ 0.05 μM. As for the experimental part: Smo Radioligand Competition Binding Assay
Membranes were prepared from a stable cell line created in HEK293FlpIn-TetR cells (Invitrogen) using Flp recombinase-mediated insertion of the pSecTag-FRT/V5-His vector containing a cDNA encoding amino acids […] of human Smo fused to the murine Igk leader sequence to produce a cell surface expressed Smo 181-781 protein. Hygromycin-resistant clones were obtained and stained for LacZ expression (no expression indicates a correct knock-in of fusion cDNA). LacZ-negative cells were analyzed for binding tritiated Smo antagonists. For membrane preparation, the HEK293 cells expressing Smo 181-781 were grown to 90% confluence in nine to fifteen 245 mm×245 mm×22 mm dishes, washed with Dulbecco's PBS (15 mL per dish) and harvested via scraping in 10 mL of DPBS. The cells were collected and centrifuged at 1500 rpm (400×g) for 10 min at 4° C. The cell pellets were re-suspended in 40 mL of cold DPBS and washed by centrifugation at 2300 rpm (950×g max) for 10 minutes at 4° C. The supernatant was aspirated and the cell pellet was snap frozen in a methanol/dry ice bath and stored at −70° C. For membrane preparation, 15 mL of Membrane Preparation Buffer (50 mM Tris-HCl pH 7.5, 250 mM sucrose with Roche complete protease cocktail tablets) was added to the tube containing the cell pellet, then cells are rapidly thawed, and homogenized using an Ultra-Turrax T8 (IKA Labortechnik) set on “6” for 15 seconds for 5-6 times in icy water bath. This homogenate was diluted up to 50 mL using Membrane Preparation Buffer and centrifuged at 35,000 rpm in a Beckman Ti45 rotor (140,000×g) for 35 minutes at 4° C. followed by aspiration of the supernatant and re-suspension of the pellet in 5 mL of Assay Buffer (50 mM Tris-HCl pH 7.5, 100 mM NaCl, 25 mM MgCl2, 1 mM EDTA, and 0.1% protease free bovine serum albumin). The re-suspended pellet was then homogenized in a glass tissue grinder. The re-suspended membranes were aliquoted (0.5 mL aliquots), snap frozen and stored at −70° C. Total protein in the membrane preparation was determined using the Pierce BCA protein assay (Pierce Chemical).
For the binding competition assay, 100 μL of Assay Buffer was added to all the wells of a 96 well GF/B filter plate (Millipore MultiScreen-HTS-FB cat# MSFBN6B50) for 10 minutes to pre-wet the filter prior to evacuation of the buffer (8 inches Hg for 8 seconds). To the pre-wet wells is added: 20 μL of Assay Buffer, 10 μL diluted test agent, 20 μL of a tritiated Smo antagonist (15 nM stock solution), and 50 μL of membrane preparation (40 μg total protein per well). The plates are sealed and mixed at room temperature for 5 min, incubated at room temperature for 2 hours, then washed 5 times with 100 μL/each of wash buffer and vacuum dried for 8 seconds at 8 inches Hg. The plate is then dried for one hour in a 60° C. oven prior to the addition of 45 μL of Microscint 20 (Packard, #6013621) to each well and incubation at RT for 30 minutes to 1 hour. The plate is counted in a TopCount scintillation counter (Perkin Elmer).
Data analysis uses Excel for % Inhibition and Graphpad Prism for IC50 calculation. Total binding (TB, in the absence of inhibitors)=average of tritiated Smo antagonist 3 nM+Smo membrane (40 μg/wells (approx 5000-7000 CPM)). Non-specific binding (NSB)=average of tritiated Smo antagonist (3 nM)+cold Smo antagonist (30 μM)+Smo membrane (approx 600-1200 CPM). Specific binding (SB)=(total binding−non-specific binding). % Inhibition=[1−(compound Specific binding/control Specific binding)]×100%. IC50 is calculated by fitting the data to the four parameter sigmoidal dose-response curve (variable slope) Y=Bottom+(Top-Bottom)/(1+10^((LogEC50−X)*HillSlope)). X is the logarithm of the inhibitor concentration. Y is the response; Y starts at Bottom and goes to Top with a sigmoid shape.
For orientation: Displacement assays read how much labelled ligand stays bound in the presence of the test substance.

Assay [2] relates to Gli-Luc/MEF cells. The experiment in a line: Gli-Luc/MEF assay. The conditions noted are these: Mus musculus, MEF; Shh-stimulated luciferase, 48 hours. The assay is classed as cell-based, mouse. As for the experimental part:
The Gli-Luc/MEF cells obtained from Gli-Luc transgenic mice contain a luciferase reporter gene under the control of the Gli response element. Luciferase activity stimulated with Sonic hedgehog ligand was inhibited by Smo inhibitors, and IC50 was subsequently calculated.
Plates were incubated at 37° C. and 5% CO2 overnight. On day two, cells were dosed with test compounds at a final concentration ranging from 3 μM to 50 μM at a 3-time series dilution. Immediately after dosing cells with compounds, recombinant mouse sonic hedgehog (Shh, R&D Systems 464-SH) was added to a final concentration of 2 μg/mL. The cells were incubated with compounds and Shh for 48 hours at 37° C. and 5% CO2. Luciferase assays were conducted on Day 4 using the Bright-Glo Luciferase assay system (Promega E2620) according to Promega's protocol. Briefly, Bright-Glo luciferase reagent was made up and 25 μL were added to each well of the 384-well plate containing media. Plates were kept at room temperature for 5 minutes, and then read on an Envision Luminescence plate reader (Perkin-Elmer). IC50 of the inhibition was calculated by using GraphPad Prism.

Sequence of human Smo (Q99835 181-787): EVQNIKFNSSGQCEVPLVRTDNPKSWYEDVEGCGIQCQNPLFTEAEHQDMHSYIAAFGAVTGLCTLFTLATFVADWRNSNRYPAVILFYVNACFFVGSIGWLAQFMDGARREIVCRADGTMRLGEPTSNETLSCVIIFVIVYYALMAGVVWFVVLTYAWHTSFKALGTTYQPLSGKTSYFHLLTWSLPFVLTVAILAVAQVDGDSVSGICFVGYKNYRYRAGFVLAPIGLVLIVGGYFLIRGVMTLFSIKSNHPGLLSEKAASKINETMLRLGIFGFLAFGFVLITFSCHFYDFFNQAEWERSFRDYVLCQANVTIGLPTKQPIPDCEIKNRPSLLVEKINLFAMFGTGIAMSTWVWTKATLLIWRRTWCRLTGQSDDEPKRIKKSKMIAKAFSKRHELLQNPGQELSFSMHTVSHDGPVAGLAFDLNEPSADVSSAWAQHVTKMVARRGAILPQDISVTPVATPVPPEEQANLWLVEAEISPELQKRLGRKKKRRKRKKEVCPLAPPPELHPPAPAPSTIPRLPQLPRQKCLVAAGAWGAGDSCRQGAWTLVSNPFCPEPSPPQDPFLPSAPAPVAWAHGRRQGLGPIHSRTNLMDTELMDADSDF

As to `Cc1cccnc1-c1cc(N2CCC(C(=O)N[C@H]3CC[C@H](O)CC3)CC2)ncc1Cl` (stereo in doubt) [Example A-71, 1-(5′-chloro-3-methyl-2,4′-bipyridin-2′-yl)-N-(trans-4-hydroxycyclohexyl)piperidine-4-carboxamide], in assay [1], the half-maximal inhibitory concentration (IC50) came out at 72.9 nM and the inhibition at 0.05 µM was determined as 85.7%. In addition, the midpoint of inhibition in assay [2], the IC50, lay at 39.4 nM.
For the molecule `CS(=O)(=O)NC1CCN(c2cc(-c3ccccn3)c(Cl)cn2)CC1` [Example A-7, N-[1-(5′-chloro-2,4′-bipyridin-2′-yl)piperidin-4-yl]methanesulfonamide], the inhibition at 0.05 µM in assay [1] amounted to 45%.
For the molecule `Cc1cccnc1-c1cc(N2CCC(NS(C)(=O)=O)CC2)ncc1Cl` [Example A-8, N-[1-(5′-chloro-3-methyl-2,4′-bipyridin-2′-yl)piperidin-4-yl]methanesulfonamide], in assay [1], the half-maximal inhibitory concentration (IC50) came to 18.7 nM and the inhibition at 0.05 µM was determined as 92%. In assay [2], the IC50 stood at 39.2 nM.
For `Cc1ccc(-c2cc(N3CCC(NS(C)(=O)=O)CC3)ncc2Cl)nc1` [Example A-9, N-[1-(5′-chloro-5-methyl-2,4′-bipyridin-2′-yl)piperidin-4-yl]methanesulfonamide] the same measures were 75 nM, 65% and 226 nM.
Regarding `CS(=O)(=O)NC1CCN(c2cc(-c3ncccc3Cl)c(Cl)cn2)CC1` [Example A-10, N-[1-(3,5′-dichloro-2,4′-bipyridin-2′-yl)piperidin-4-yl]methanesulfonamide], in assay [1], the IC50 amounted to 32.1 nM and the inhibition at 0.05 µM is 75%. Further, 209 nM corresponded to half-maximal inhibition in assay [2] (IC50).
For `CS(=O)(=O)NC1CCN(c2cc(-c3ccc(Cl)cn3)c(Cl)cn2)CC1` [Example A-11, N-[1-(5,5′-dichloro-2,4′-bipyridin-2′-yl)piperidin-4-yl]methanesulfonamide] the same measures were 32.9 nM, 78% and 152 nM.
For `CS(=O)(=O)NC1CCN(c2cc(-c3ncc(Cl)cc3Cl)c(Cl)cn2)CC1` [Example A-12, N-[1-(3,5,5′-trichloro-2,4′-bipyridin-2′-yl)piperidin-4-yl]methanesulfonamide] the same measures were 18.8 nM, 88% and 53.4 nM.
For `CS(=O)(=O)NC1CCN(c2cc(-c3ccc(C(F)(F)F)cn3)c(Cl)cn2)CC1` [Example A-13, N-{1-[5′-chloro-5-(trifluoromethyl)-2,4′-bipyridin-2′-yl]piperidin-4-yl}methanesulfonamide], in that order: 110 nM, 56% and 404 nM.
For the molecule `Cc1cnc(-c2cc(N3CCC(NS(C)(=O)=O)CC3)ncc2Cl)c(C)c1` [Example A-14, N-[1-(5′-chloro-3,5-dimethyl-2,4′-bipyridin-2′-yl)piperidin-4-yl]methanesulfonamide], in assay [1], the IC50 was 6.4 nM and the inhibition at 0.05 µM amounted to 95%. In assay [2], this molecule had an IC50 of 16.4 nM.
For `CS(=O)(=O)NC1CCN(c2ccc(Cl)c(-c3ccccn3)n2)CC1` [Example A-15, N-[1-(3-chloro-2,2′-bipyridin-6-yl)piperidin-4-yl]methanesulfonamide], in that order: 34.3 nM, 83% and 78.5 nM.
As to `Cc1cccnc1-c1nc(N2CCC(NS(C)(=O)=O)CC2)ccc1Cl` [Example A-16, N-[1-(3-chloro-3′-methyl-2,2′-bipyridin-6-yl)piperidin-4-yl]methanesulfonamide], in assay [1], the IC50 amounted to 20.6 nM and the inhibition at 0.05 µM was found to be 97.8%. In assay [2], half-maximal inhibition (IC50) required 14.5 nM.
As to `O=S(=O)(CCO)N1CCN(c2ccc(Cl)c(-c3ccccn3)n2)CC1` [Example A-137, 2-{[4-(3-chloro-2,2′-bipyridin-6-yl)piperazin-1-yl]sulfonyl}ethanol], the inhibition at 0.05 µM in assay [1] was 45.8%.

The values are drawn from patent publication US9056865B2, “Pyridine-2-derivatives as smoothened receptor modulators” (Pfizer Inc., priority 2010, dated 2015).
